The assay concerns P388 leukemia ip, CD2F1 mice, survival T/C. Description: NCI In Vivo Anticancer Drug Screen. Data for tumor model P388 Leukemia (intraperitoneal) in CD2F1 (CDF1) mice. To be noted: endpoint: median survival time, higher = longer survival. Summed up:
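Mice carrying the transplanted tumor received test compound or vehicle. Survival was recorded in each group, and the value is the treated-group measurement divided by that of the vehicle-treated control group.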

Where [1] appears, read: dose: 50.0 mg/kg/injection, schedule: Q01DX005 (ip), vehicle: Klucel (hydroxypropylcellulose) (HPC).
Setting [2] is: dose: 100.0 mg/kg/injection, schedule: Q01DX005 (ip), vehicle: Klucel (hydroxypropylcellulose) (HPC).
The mark [3] stands for this setting: dose: 12.5 mg/kg/injection, schedule: Q01DX005 (ip), vehicle: Klucel (hydroxypropylcellulose) (HPC).
Setting [4] is: dose: 25.0 mg/kg/injection, schedule: Q01DX005 (ip), vehicle: Klucel (hydroxypropylcellulose) (HPC).
Setting [5] is: dose: 200.0 mg/kg/injection, schedule: Q01DX005 (ip), vehicle: Klucel (hydroxypropylcellulose) (HPC).
The mark [6] stands for this setting: dose: 100.0 mg/kg/injection, schedule: Q01DX009 (ip), vehicle: saline with Tween-80.
Where [7] appears, read: dose: 100.0 mg/kg/injection, schedule: Q04DX003 (ip), vehicle: saline with Tween-80.
[8] abbreviates: dose: 200.0 mg/kg/injection, schedule: Q04DX003 (ip), vehicle: saline with Tween-80.
The mark [9] stands for this setting: dose: 400.0 mg/kg/injection, schedule: Q04DX003 (ip), vehicle: saline with Tween-80.
Setting [10] is: dose: 50.0 mg/kg/injection, schedule: Q01DX009 (ip), vehicle: saline with Tween-80.
The mark [11] stands for this setting: dose: 50.0 mg/kg/injection, schedule: Q01DX005 (ip), vehicle: saline with Tween-80.
[12] abbreviates: dose: 100.0 mg/kg/injection, schedule: Q01DX005 (ip), vehicle: saline with Tween-80.
Setting [13] is: dose: 200.0 mg/kg/injection, schedule: Q01DX005 (ip), vehicle: saline with Tween-80.
The mark [14] stands for this setting: dose: 50.0 mg/kg/injection, schedule: Q01DX009 (ip), vehicle: saline.
Setting [15] is: dose: 100.0 mg/kg/injection, schedule: Q01DX009 (ip), vehicle: saline.
[16] abbreviates: dose: 200.0 mg/kg/injection, schedule: Q01DX009 (ip), vehicle: saline with Tween-80.

Each structure is given as a SMILES string. Values joined by “and” are separate entries in the source; they are usually repeats but may differ in a detail not shown here. Equal entries are not always repeated. Toxic doses and inconclusive results are not listed.

Turning to `COc1cccc2c1C(=O)c1c(O)c3c(c(O)c1C2=O)C[C@@](O)(C(C)=O)CC3OC1CC(NC(=O)C(C)N)C(O)C(C)O1` (some centres not stated), the T/C runs as follows: (dose: 6.25 mg/kg/injection, schedule: Q04DX003 (ip), vehicle: saline) 108 % of control; (dose: 12.5 mg/kg/injection, schedule: Q04DX003 (ip), vehicle: saline) 115 % of control; (dose: 50.0 mg/kg/injection, schedule: Q04DX003 (ip), vehicle: saline) 150 % of control.
For the molecule `Cc1ccccc1SSCCN`, the T/C was 103 % of control under setting [1] and 103 % of control under setting [2].
As for `CC(C)(CNC(=O)C12CC3CC(CC(C3)C1)C2)NC(=O)C12CC3CC(CC(C3)C1)C2`, the T/C is 98 % of control under setting [3], 107 % of control under setting [4], 93 % of control under setting [1] and 88 % of control under setting [2].
Take `CCOC(=O)/C(N=Nc1ccccc1Cl)=C(\C)O`: the T/C runs as follows: under setting [1], 101 % of control; under setting [2], 101 % of control; under setting [5], 101 % of control.
Take `CSCCC(NC(=O)OCC1c2ccccc2-c2ccccc21)C(=O)O` (configuration not stated): the T/C was 103 % of control under setting [1] and 100 % of control under setting [2].
For the molecule `CCN(CC)CCN1C(=O)CN=C(c2ccc[nH]2)c2cc(Cl)ccc21`, the T/C by setting is: under setting [6], 90 % of control; under setting [7], 100 % of control; under setting [8], 100 % of control; (dose: 400.0 mg/kg/injection, schedule: Q01DX009 (ip), vehicle: saline with Tween-80) 95 % of control; under setting [9], 95 % of control.
As for `O=C1CCCN1`, the T/C is, setting by setting: (dose: 100.0 mg/kg/injection, schedule: Q04DX003 (ip), vehicle: saline) 100 % of control; (dose: 200.0 mg/kg/injection, schedule: Q04DX003 (ip), vehicle: saline) 100 % of control; (dose: 400.0 mg/kg/injection, schedule: Q04DX003 (ip), vehicle: saline) 109 % of control.
For the molecule `Cc1nnc2c3[nH]c4ccccc4c3c(Cl)nn12`, the T/C under setting [1] is 99 % of control, the T/C under setting [2] is 92 % of control and the T/C under setting [5] was 98 % of control.
Regarding `CCOC(=O)C(/C=N/NC(N)=S)CC` (configuration not stated), the T/C reads like this: (dose: 100.0 mg/kg/injection, schedule: Q01DX001 (ip), vehicle: saline with Tween-80) 100 % of control; (dose: 200.0 mg/kg/injection, schedule: Q01DX001 (ip), vehicle: saline with Tween-80) 99 % of control; (dose: 400.0 mg/kg/injection, schedule: Q01DX001 (ip), vehicle: saline with Tween-80) 97 % of control.
Consider `O=C(NNC(=O)c1cccnc1)Nc1cccc(Cl)c1Cl`, for which the T/C is, setting by setting: (dose: 12.5 mg/kg/injection, schedule: Q01DX009 (ip), vehicle: saline with Tween-80) 104 % of control; (dose: 25.0 mg/kg/injection, schedule: Q01DX009 (ip), vehicle: saline with Tween-80) 100 % of control; under setting [10], 95 % of control.
Turning to `COc1ccc2c(C)cc(N/N=C(\C)c3cn(C)n(-c4ccccc4)c3=O)nc2c1`, the T/C runs as follows: under setting [3], 98 % of control; under setting [4], 95 % of control; under setting [1], 101 % of control and 93 % of control; under setting [2], 110 % of control.
Turning to `O=C1NCC(Br)C(=O)N1` (configuration not stated), the T/C was 113 % of control (dose: 25.0 mg/kg/injection, schedule: Q01DX009 (ip), vehicle: other); 112 % of control (dose: 25.0 mg/kg/injection, schedule: Q01DX009 (ip), vehicle: saline + Tween-80 + alcohol); 121 % of control (dose: 50.0 mg/kg/injection, schedule: Q01DX009 (ip), vehicle: saline + Tween-80 + alcohol); 122 % of control (dose: 100.0 mg/kg/injection, schedule: Q01DX009 (ip), vehicle: saline + Tween-80 + alcohol).
Turning to `CSC1=NC=C(C#N)C2=NC(c3ccccc3)NN12` (configuration not stated), the T/C was 98 % of control under setting [11], 97 % of control under setting [12] and 100 % of control under setting [13].
Take `NS(=O)(=O)c1ccc2c(=O)c(C(=O)O)c[nH]c2c1`: the T/C was 98 % of control (dose: 1.56 mg/kg/injection, schedule: Q01DX009 (ip), vehicle: saline); 92 % of control (dose: 3.12 mg/kg/injection, schedule: Q01DX009 (ip), vehicle: saline); 92 % of control (dose: 6.25 mg/kg/injection, schedule: Q01DX009 (ip), vehicle: saline); 101 % of control under setting [14]; 96 % of control under setting [15].
For `CCOC(=O)/C(=C(/C)OC(C)=O)c1ccc([N+](=O)[O-])cc1[N+](=O)[O-]`, the T/C runs as follows: under setting [14], 89 % of control; under setting [15], 94 % of control; (dose: 200.0 mg/kg/injection, schedule: Q01DX009 (ip), vehicle: saline) 93 % of control.
Regarding `O/N=C\C[n+]1cc2ccccc2cc1/C=N\O`, the T/C is 112 % of control under setting [11] and 109 % of control under setting [12].
As for `O=C(Nc1ccccc1C(=O)c1ccccc1)Nc1ccc(F)cc1[N+](=O)[O-]`, the T/C is 97 % of control under setting [10], 109 % of control under setting [6] and 94 % of control under setting [16].
On to `CC(C)(C)C1CS1` (configuration not stated), for which the T/C was 107 % of control under setting [11], 107 % of control under setting [12] and 117 % of control under setting [13].
Consider `O=C1OCC2=C1CN1CCc3cc4c(cc3C1C2)OCO4` (configuration not stated), for which the T/C was 94 % of control (dose: 0.63 mg/kg/injection, schedule: Q01DX009 (ip), vehicle: distilled water + Tween-80); 103 % of control (dose: 1.25 mg/kg/injection, schedule: Q01DX009 (ip), vehicle: distilled water + Tween-80); 112 % of control (dose: 2.5 mg/kg/injection, schedule: Q01DX009 (ip), vehicle: distilled water + Tween-80); 103 % of control (dose: 5.0 mg/kg/injection, schedule: Q01DX009 (ip), vehicle: distilled water + Tween-80); 103 % of control (dose: 10.0 mg/kg/injection, schedule: Q01DX009 (ip), vehicle: distilled water + Tween-80); 94 % of control (dose: 20.0 mg/kg/injection, schedule: Q01DX009 (ip), vehicle: distilled water + Tween-80).
Consider `Cc1cc(NC(=O)c2ccc(N=Nc3cc(S(=O)(=O)O)c4ccccc4c3O)cc2)ccc1N=Nc1ccc2cc(S(=O)(=O)O)cc(S(=O)(=O)O)c2c1`, for which the T/C by setting is: (dose: 12.5 mg/kg/injection, schedule: Q01DX005 (ip), vehicle: saline with Tween-80) 102 % of control and 97 % of control; (dose: 25.0 mg/kg/injection, schedule: Q01DX005 (ip), vehicle: saline with Tween-80) 99 % of control and 97 % of control; under setting [11], 101 % of control and 111 % of control; under setting [12], 102 % of control and 109 % of control and 117 % of control; under setting [13], 101 % of control.
In the case of `COc1ccc2cc3n(c(=N)c2c1OC)CCc1cc2c(cc1-3)OCO2`, the T/C was 101 % of control (dose: 0.63 mg/kg/injection, schedule: Q01DX009 (ip), vehicle: water); 110 % of control (dose: 1.25 mg/kg/injection, schedule: Q01DX009 (ip), vehicle: water); 105 % of control (dose: 2.5 mg/kg/injection, schedule: Q01DX009 (ip), vehicle: water); 110 % of control (dose: 5.0 mg/kg/injection, schedule: Q01DX009 (ip), vehicle: water); 110 % of control (dose: 10.0 mg/kg/injection, schedule: Q01DX009 (ip), vehicle: water); 110 % of control (dose: 20.0 mg/kg/injection, schedule: Q01DX009 (ip), vehicle: water).
In the case of `O=C1c2ccccc2C(=O)N1/N=[N+](\[O-])N1Cc2ccccc2C1`, the T/C by setting is: under setting [4], 97 % of control; under setting [1], 101 % of control; under setting [2], 99 % of control; under setting [5], 99 % of control.
As to `CCC(C)N(C)/N=N/c1nc[nH]c1C(N)=O` (configuration not stated), the T/C is, setting by setting: under setting [6], 115 % of control; under setting [7], 95 % of control; under setting [16], 105 % of control; under setting [8], 113 % of control; under setting [9], 113 % of control.
Turning to `COc1cc(C(=O)n2c(=O)oc(=O)c3cc([N+](=O)[O-])ccc32)cc(OC)c1OC`, the T/C by setting is: (dose: 60.0 mg/kg/injection, schedule: Q01DX005 (ip), vehicle: saline) 101 % of control; (dose: 120.0 mg/kg/injection, schedule: Q01DX005 (ip), vehicle: saline) 94 % of control; (dose: 240.0 mg/kg/injection, schedule: Q01DX005 (ip), vehicle: saline) 89 % of control.

Values taken from PubChem BioAssay AID330 (DTP/NCI, 2004).
